Measurements taken from PMC2819846 (Mutation research, 2008).
Several values for one entry are separate records, joined by “and”; a condition that tells them apart may be missing. Identical values can stand only once. Like-named read-outs stand apart in the source and are kept apart here.

What was measured:
[1] = tested on: Salmonella TA98; assay: Salmonella plate-incorporation mutagenicity assay, strain TA98, with S9 mix; assay type: cell-based; conditions: for Mutagenic potency, Revertants/µg ± S.E., TA98 / Mutagenicity call TA98: plate-incorporation, +S9
[2] = tested on: Salmonella TA100; assay: Salmonella plate-incorporation mutagenicity assay, strain TA100; assay type: cell-based; conditions: for Mutagenic potency, Revertants/µg ± S.E., TA100 / Mutagenicity call TA100: plate-incorporation, +S9
[3] = tested on: Salmonella TA104; assay: Salmonella plate-incorporation mutagenicity assay, strain TA104, with S9 mix; assay type: cell-based; conditions: for Mutagenic potency, Revertants/µg ± S.E., TA104 / Mutagenicity call TA104: plate-incorporation, +S9
[4] = tested on: strain TA100; assay type: cell-based, Salmonella; conditions: TA100 liquid-suspension; for Rev/10^6 survivors: DMSO 0.8; for Percent survival: DMSO 100
[5] = tested on: DNA from Salmonella TA100; assay: Stable DNA adducts by 32P-postlabeling in DNA of treated TA100; assay type: cell-based; conditions: DMSO 0.024 ± 0.000
[6] = tested on: DNA from Salmonella TA100; assay: Abasic sites by aldehydic-site assay in DNA of treated TA100; assay type: cell-based; conditions: DMSO 5.9 ± 0.33
[7] = tested on: Salmonella; conditions: cited from earlier work
[8] = TA98 +S9, Test 1, 2 µg/plate, zero-dose 33/40/39
[9] = TA98 +S9, Test 1, 5 µg/plate, zero-dose 33/40/39
[10] = TA98 +S9, Test 1, 10 µg/plate, zero-dose 33/40/39
[11] = TA98 +S9, Test 1, 20 µg/plate, zero-dose 33/40/39
[12] = TA98 +S9, Test 1, 40 µg/plate, zero-dose 33/40/39
[13] = TA98 +S9, Test 1, 80 µg/plate, zero-dose 33/40/39
[14] = TA100 +S9, Test 3, 0.5 µg/plate, zero-dose 127/118/125
[15] = TA100 +S9, Test 3, 1 µg/plate, zero-dose 127/118/125
[16] = TA100 +S9, Test 3, 2.5 µg/plate, zero-dose 127/118/125
[17] = TA100 +S9, Test 3, 5 µg/plate, zero-dose 127/118/125
[18] = TA100 +S9, Test 4, 0.5 µg/plate, zero-dose 112/140/115
[19] = TA100 +S9, Test 4, 1 µg/plate, zero-dose 112/140/115
[20] = TA100 +S9, Test 4, 2.5 µg/plate, zero-dose 112/140/115
[21] = TA100 +S9, Test 5, 0.5 µg/plate, zero-dose 102/119/99
[22] = TA100 +S9, Test 5, 1 µg/plate, zero-dose 102/119/99
[23] = TA100 +S9, Test 5, 2.5 µg/plate, zero-dose 102/119/99
[24] = TA104 +S9, Test 3, 2.5 µg/plate, zero-dose 402/395/336
[25] = TA104 +S9, Test 3, 5 µg/plate, zero-dose 402/395/336

Structure (SMILES): O[C@@H]1C=Cc2c(ccc3ccc4ccsc4c23)[C@H]1O (racemic) [P[4,3-b]T 8,9-diol, (±)-trans-8,9-Dihydrophenanthro[4,3-b]thiophene 8,9 diol-]
- Rev/plate [1, 8]: 73 rev/plate
- Rev/plate [1, 9]: 116 rev/plate
- Rev/plate [1, 10]: 140 rev/plate
- Rev/plate [1, 11]: 229 rev/plate
- Rev/plate [1, 12]: 435 rev/plate
- Rev/plate [1, 13]: 578 rev/plate
- Rev/plate ([1]; TA98 +S9, Test 2, 10 µg/plate, zero-dose 43/41/30): 167/151
- Rev/plate ([1]; TA98 +S9, Test 2, 20 µg/plate, zero-dose 43/41/30): 127/225
- Rev/plate ([1]; TA98 +S9, Test 2, 40 µg/plate, zero-dose 43/41/30): 383/448
- Rev/plate ([1]; TA98 +S9, Test 2, 80 µg/plate, zero-dose 43/41/30): 479/475
- Rev/plate ([1]; TA98 +S9, Test 3, 10 µg/plate, zero-dose 49/50/50): 251/249
- Rev/plate ([1]; TA98 +S9, Test 3, 20 µg/plate, zero-dose 49/50/50): 298/321
- Rev/plate ([1]; TA98 +S9, Test 3, 40 µg/plate, zero-dose 49/50/50): 561/624
- Rev/plate ([1]; TA98 +S9, Test 3, 80 µg/plate, zero-dose 49/50/50): 828/725
- Mutagenic potency, Revertants/µg ± S.E., TA98 [1]: 11.0 ± 1.6 rev/µg
- Mutagenicity call TA98 [1]: (+) (Called mutagenic (+) based on showing reproducible, dose-related increases in rev/plate that reached or exceeded 2-fold relative to zero-dose controls)
- Rev/plate ([2]; TA100 +S9, Test 1, 2 µg/plate, zero-dose 99/110/110): 660 rev/plate
- Rev/plate ([2]; TA100 +S9, Test 1, 5 µg/plate, zero-dose 99/110/110): 938 rev/plate
- Rev/plate ([2]; TA100 +S9, Test 1, 10 µg/plate, zero-dose 99/110/110): 1120 rev/plate
- Rev/plate ([2]; TA100 +S9, Test 1, 20 µg/plate, zero-dose 99/110/110): 1175 rev/plate
- Rev/plate ([2]; TA100 +S9, Test 1, 40 µg/plate, zero-dose 99/110/110): 1027 rev/plate
- Rev/plate ([2]; TA100 +S9, Test 1, 80 µg/plate, zero-dose 99/110/110): 673 rev/plate
- Rev/plate ([2]; TA100 +S9, Test 2, 0.5 µg/plate, zero-dose 84/78/80): 205/219
- Rev/plate ([2]; TA100 +S9, Test 2, 1 µg/plate, zero-dose 84/78/80): 318/270
- Rev/plate ([2]; TA100 +S9, Test 2, 2.5 µg/plate, zero-dose 84/78/80): 703/655
- Rev/plate ([2]; TA100 +S9, Test 2, 5 µg/plate, zero-dose 84/78/80): 857/907
- Rev/plate [2, 14]: 412/353
- Rev/plate [2, 15]: 610/511
- Rev/plate [2, 16]: 951/868
- Rev/plate [2, 17]: 985/1059
- Rev/plate [2, 18]: 305/312
- Rev/plate [2, 19]: 487/469
- Rev/plate [2, 20]: 976/966
- Rev/plate ([2]; TA100 +S9, Test 4, 5 µg/plate, zero-dose 112/140/115): 1368/1275
- Rev/plate [2, 21]: 269/235
- Rev/plate [2, 22]: 430/375
- Rev/plate [2, 23]: 865/878
- Rev/plate ([2]; TA100 +S9, Test 5, 5 µg/plate, zero-dose 102/119/99): 1150/1115
- Times more mutagenic for base-substitution mutation than the parent P[4,3-b]T ([2]; base-substitution strains (TA100, TA104), Table 2): 10–20 times
- Mutagenic potency, Revertants/µg ± S.E., TA100 [2]: 274 ± 37 rev/µg
- Mutagenicity call TA100 [2]: (+) (Called mutagenic (+) based on showing reproducible, dose-related increases in rev/plate that reached or exceeded 2-fold relative to zero-dose controls)
- Rev/plate ([3]; TA104 +S9, Test 1, 0.5 µg/plate, zero-dose 379/400/370): 700/693
- Rev/plate ([3]; TA104 +S9, Test 1, 1 µg/plate, zero-dose 379/400/370): 1035/1060
- Rev/plate ([3]; TA104 +S9, Test 1, 2.5 µg/plate, zero-dose 379/400/370): 1698/1615
- Rev/plate ([3]; TA104 +S9, Test 1, 5 µg/plate, zero-dose 379/400/370): 1986/1995
- Rev/plate ([3]; TA104 +S9, Test 3, 0.5 µg/plate, zero-dose 402/395/336): 824/707
- Rev/plate ([3]; TA104 +S9, Test 3, 1 µg/plate, zero-dose 402/395/336): 1210/1178
- Rev/plate [3, 24]: 1827/1822
- Rev/plate [3, 25]: 1980/1970
- Mutagenic potency, Revertants/µg ± S.E., TA104 [3]: 577 ± 63 rev/µg
- Mutagenicity call TA104 [3]: (+) (Called mutagenic (+) based on showing reproducible, dose-related increases in rev/plate that reached or exceeded 2-fold relative to zero-dose controls)
- Fold increase in mutant frequency relative to DMSO-treated cells ([4]; 5 µg/ml): 6.1 fold
- Rev/10^6 survivors ([4]; 5 µg/ml): 4.9 Rev/10^6 survivors
- Percent survival ([4]; 5 µg/ml): 47%
- Stable adducts/10^8 nucleotides ± S.E ([5]; TA100, 5 µg/ml): 0.650 ± 0.045 adducts/10^8 nucleotides
- Abasic sites/10^5 nucleotides ± S.E ([6]; TA100, 5 µg/ml): 5.5 ± 0.16 sites/10^5 nucleotides

Structure (SMILES): c1ccc2c(c1)ccc1cc3c(cc12)sc1ccccc13 [BPT, benzo[b]phenanthro[2,3-d]thiophene]
- Mutagenicity in Salmonella [7]: mutagenic

Structure (SMILES): O=S1(=O)C=Cc2c1ccc1ccc3ccccc3c21 [P[3,4-b]T sulfone, Phenanthro[3,4-b]thiophene sulfone]
- Rev/plate [1, 8]: 328 rev/plate
- Rev/plate [1, 9]: 982 rev/plate
- Rev/plate [1, 10]: 1373 rev/plate
- Rev/plate [1, 11]: 1324 rev/plate
- Rev/plate [1, 12]: 1124 rev/plate
- Rev/plate [1, 13]: 1268 rev/plate
- Rev/plate ([1]; TA98 +S9, Test 2, 0.5 µg/plate, zero-dose 43/41/30): 41/57
- Rev/plate ([1]; TA98 +S9, Test 2, 1 µg/plate, zero-dose 43/41/30): 63/67
- Rev/plate ([1]; TA98 +S9, Test 2, 2.5 µg/plate, zero-dose 43/41/30): 263/237
- Rev/plate ([1]; TA98 +S9, Test 2, 5 µg/plate, zero-dose 43/41/30): 765/708
- Rev/plate ([1]; TA98 +S9, Test 3, 0.5 µg/plate, zero-dose 49/50/50): 56/52
- Rev/plate ([1]; TA98 +S9, Test 3, 1 µg/plate, zero-dose 49/50/50): 124/86
- Rev/plate ([1]; TA98 +S9, Test 3, 2.5 µg/plate, zero-dose 49/50/50): 293/366
- Rev/plate ([1]; TA98 +S9, Test 3, 5 µg/plate, zero-dose 49/50/50): 1078/922
- Mutagenic potency, Revertants/µg ± S.E., TA98 [1]: 143 rev/µg and 143 ± 19 rev/µg
- Mutagenicity call TA98 [1]: (+) (Called mutagenic (+) based on showing reproducible, dose-related increases in rev/plate that reached or exceeded 2-fold relative to zero-dose controls)
- Rev/plate ([2]; TA100 +S9, Test 3, 0.1 µg/plate, zero-dose 127/118/125): 239/190
- Rev/plate ([2]; TA100 +S9, Test 3, 0.25 µg/plate, zero-dose 127/118/125): 368/365
- Rev/plate [2, 14]: 681/795
- Rev/plate [2, 15]: 1332/1283
- Rev/plate [2, 16]: 2801/2710
- Rev/plate [2, 17]: 3090/3170
- Rev/plate ([2]; TA100 +S9, Test 4, 0.1 µg/plate, zero-dose 112/140/115): 197/195
- Rev/plate ([2]; TA100 +S9, Test 4, 0.25 µg/plate, zero-dose 112/140/115): 284/297
- Rev/plate [2, 18]: 453/514
- Rev/plate [2, 19]: 380/383
- Rev/plate [2, 20]: 1885 rev/plate
- Rev/plate ([2]; TA100 +S9, Test 5, 0.1 µg/plate, zero-dose 102/119/99): 194/197
- Rev/plate ([2]; TA100 +S9, Test 5, 0.25 µg/plate, zero-dose 102/119/99): 255/245
- Rev/plate [2, 21]: 504/448
- Rev/plate [2, 22]: 1037/993
- Rev/plate [2, 23]: 2935/2875
- Mutagenic potency, Revertants/µg ± S.E., TA100 [2]: 914 ± 113 rev/µg
- Mutagenicity call TA100 [2]: (+) (Called mutagenic (+) based on showing reproducible, dose-related increases in rev/plate that reached or exceeded 2-fold relative to zero-dose controls)
- Mutagenicity without S9 mix (direct-acting activity) ([2]; without S9 mix): required metabolic activation to be mutagenic
- Rev/plate ([3]; TA104 +S9, Test 2, 2.5 µg/plate, zero-dose 276/260/270): 1068/1015
- Rev/plate ([3]; TA104 +S9, Test 2, 5 µg/plate, zero-dose 276/260/270): 1603/1565
- Rev/plate ([3]; TA104 +S9, Test 2, 10 µg/plate, zero-dose 276/260/270): 1488/1583
- Rev/plate ([3]; TA104 +S9, Test 2, 20 µg/plate, zero-dose 276/260/270): 706/778
- Rev/plate [3, 24]: 1027/982
- Rev/plate [3, 25]: 1650/1580
- Rev/plate ([3]; TA104 +S9, Test 3, 10 µg/plate, zero-dose 402/395/336): 1652/1652
- Rev/plate ([3]; TA104 +S9, Test 3, 20 µg/plate, zero-dose 402/395/336): 758/919
- Mutagenic potency, Revertants/µg ± S.E., TA104 [3]: 262 ± 135 rev/µg
- Mutagenicity call TA104 [3]: (+) (Called mutagenic (+) based on showing reproducible, dose-related increases in rev/plate that reached or exceeded 2-fold relative to zero-dose controls)
- Fold increase in mutant frequency relative to DMSO-treated cells ([4]; 10 µg/ml): 17.6 fold
- Rev/10^6 survivors ([4]; 10 µg/ml): 14.1 Rev/10^6 survivors
- Percent survival ([4]; 10 µg/ml): 56%
- Fold increase in mutant frequency relative to DMSO-treated cells ([4]; 20 µg/ml): 62.1 fold
- Rev/10^6 survivors ([4]; 20 µg/ml): 49.1 Rev/10^6 survivors
- Percent survival ([4]; 20 µg/ml): 37%
- Stable adducts/10^8 nucleotides ± S.E ([5]; TA100, 10 µg/ml): Not detected
- Stable adducts/10^8 nucleotides ± S.E ([5]; TA100, 20 µg/ml): Not detected
- Abasic sites/10^5 nucleotides ± S.E ([6]; TA100, 10 µg/ml): 18.4 ± 0.64 sites/10^5 nucleotides
- Abasic sites/10^5 nucleotides ± S.E ([6]; TA100, 20 µg/ml): 15.1 ± 0.43 sites/10^5 nucleotides
